Measured values: US20210395327A1, “Growth Hormone-Releasing Hormone Antagonists and Uses Thereof” (United States Government As Represented By The Department …, priority 2019, published 2021)
Non-standard residues stand in square brackets, D forms with d. Residues, ends and D or L forms follow the SMILES beside them. *: point of attachment. Phenylacetyl(2,3,4,5,6-F5) = O=C(Cc1c(F)c(F)c(F)c(F)c1F)*; Phe(F5) = N[C@@H](Cc1c(F)c(F)c(F)c(F)c1F)C(=O)O; Phe(4-Cl) = N[C@@H](Cc1ccc(Cl)cc1)C(=O)O; hArg = N=C(N)NCCCC[C@H](N)C(=O)O; 12Ado = NCCCCCCCCCCCC(=O)O; Nle = CCCC[C@H](N)C(=O)O; Orn = NCCC[C@H](N)C(=O)O; Abu = CC[C@H](N)C(=O)O; PhAc = O=C(Cc1ccccc1)*

Legend:
[1] = system: NCI-N87 stomach cancer cells; assay: In vitro cell viability (CellTiter 96), N87; assay type: cell-based, human; conditions: for In vitro relative inhibitory potency in comparison to MIA-602, NCI-N87: Table 3B, 5 μM for 72 H, MIA-602 = 1
Method in brief: (§1)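 Human tumour lines were exposed to GHRH antagonist at 1, 2.5 or 5 μM for 72 h with medium refreshed every 48 h, after 24 h in low-serum (0.5% FBS) medium. Cell viability (CellTiter 96) was expressed as inhibition relative to MIA602.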

HCC827 lung cancer cells = assay: In vitro cell viability, HCC827; assay type: cell-based, human; conditions: for In vitro relative inhibitory potency in comparison to MIA-602, HCC827: Table 3B, 5 μM for 72 H, MIA-602 = 1
Method in brief: as §1

[2] = system: CFPAC-1 pancreatic cancer cells; assay: In vitro cell viability, CFPAC-1; assay type: cell-based, human; conditions: for In vitro relative inhibitory potency in comparison to MIA-602, CFPAC-1: Table 3B, 5 μM for 72 H, MIA-602 = 1
Method in brief: as §1

HT-29 colon cancer cells = assay: In vitro cell viability, HT-29; assay type: cell-based, human; conditions: Table 3B; 5 μM for 72 H; MIA-602 = 1
Experimental: The inhibitory effects of the various synthesized GHRH antagonists were tested in cell proliferation assays in various human cancer cell lines including stomach cancer (KATOIII, N87), colon cancer (HT-29), urothelial cancer (J82, RT4), pancreatic cancer (PANC-1, CFPAC-1), prostatic cancer (PC3), breast cancer (MX-1, HCC1806), ovarian cancer (SK-OV-3, OVCAR-3) and lung cancer (HCC827, H460).
(§2) Cell culture. Human cancer cell lines including pancreatic (PANC-1 and CFPAC-1), lung (HCC827 and H460), stomach (NCI-N87 and KATOIII), urothelial (J82, RT4), prostatic (PC3), breast (MX-1 and HCC 1806), colorectal (HT-29), and ovarian (SK-OV-3 and OVCAR-3) were obtained from the American Type Culture Collection (ATCC) and cultured at 37° C. in a humidified 95% air/5% CO2 atmosphere in the medium recommended by ATCC.
In vitro cell viability. Cell viability was analyzed as follows: cancer cells including pancreatic (PANC-1 and CFPAC-1), lung (HCC827 and H460), stomach (NCI-N87 and KATOIII), urothelial (J82, RT4), prostatic (PC3) and breast (MX-1 and HCC 1806), colorectal (HT-29) and ovarian (SK-OV-3 and OVCAR-3) were grown on 96 well plates to ˜60% confluence, the cells were starved for 24 h in culture medium containing 0.5% FBS. Cells were then treated with GHRH antagonists MIA602 AVR compounds at concentrations of 1, 2.5 or 5 μM, or vehicle (0.1% DMSO) in quintuplicates for 72 hours. The medium was replaced every 48 hours. Cell viability was measured using CellTiter 96 aqueous one solution kit (Promega). Inhibitory effects of tested AVR compounds in comparison to that of MIA602 are presented as inhibitory potency.
Inhibitory effects of selected AVR compounds in comparison to that of MIA602 are presented as inhibitory potency (e.g., percentage of inhibition). […] The cell lines tested including lung cancer HCC827 (FIG. 2A), pancreatic cancer CFPAC-1 (FIG. 2B), stomach cancer N87 (FIG. 2C), colon cancer HT-29 (FIG. 2D), breast cancers MX-1 and HCC1806 (FIGS. 2 E, F). Based on the results of cell proliferation assay after cancer cells were treated with antagonist at concentration of 5 μM for 72H, the relative inhibitory potency of AVR antagonists in comparison to MIA-602 is summarized in Table 3 A and B. Over 60 AVR compounds were tested in 12 cancer cell lines.
Based on the results of cell proliferation assay after cancer cells were treated with antagonist at concentration of 5 µM for 72H, * at concentration of 2 µM for 72 H.

[3] = system: stomach cancer N87 xenograft; assay: Xenograft tumor growth in nude mice, N87; assay type: in vivo; conditions: for % Inhibition: vs control
Experimental: The peptides' activity was compared with GHRH antagonist MIA-602. All statistical analyzses were performed from comparing GHRA antagonists to non-treated tumor (control).
Peptides and chemicals. GHRH antagonists MIA-602 and AVR-GHRH antagonists (see Table 2 above) were synthesized by solid phase methods and purified by HPLC. The peptides were dissolved in DMSO and further diluted in 10% 1,2-propanediol. The final concentration of peptides was 50 µg/ml in 10% 1,2-propanediol containing 0.1% of DMSO.
as §2, with “(NCI-N87), prostate” for “(NCI-N87 and KATOIII), urothelial (J82, RT4), prostatic”, “brest” for “breast”, “HCC-1806),” for “HCC 1806),”
Xenograft models of human cancers in nude mice. Female athymic (NCr nu/nu) nude mice, 5- to 6-weeks-old, obtained from the Envigo labs (Tampa, Fla.), were housed in laminar airflow cabinets under pathogen-free conditions with a 12-h light/12-h dark schedule, and were fed autoclaved standard chow and water. To generate mice with xenografted tumors, tumor xenografts were initiated by subcutaneous (s.c.) injection of 107 human cancer cells into female nude mice. After about 4 weeks the resulting tumors were dissected and collected after removing necrosis tissues. The tumors were then cut into particles with size of 3 mm3 and transplanted s.c. by trocar needle into experimental animals. When tumors grew to the size of 50-60 mm3 (by volume), […] of 5 μg of GHRH antagonists MIA-602 or AVR-compounds (2-10 μg as indicated), or vehicle solutions (0.1% DMSO in 10% 1,2-propanediol) respectively. Tumor sizes were measured weekly.
Statistical analysis. One-way ANOVA followed by Bonferroni comparison were performed. Data are expressed as Mean±SEM. To determine statistical significance between animal groups, two-tailed Student's t-test was conducted. Differences were considered significant when p<0.05.
Results. […] FIG. 1A-N represents in vivo inhibition of tumor growth during the treatment with GHRH antagonist MIA-602 and selected AVR antagonists in nude mice xenografted with various human tumors including pancreatic cancer PANC-1 (FIG. 1A) and CFPAC-1 (FIG. 1I); lung cancer HCC827 (FIGS. 1B, C) and H460 (FIG. 1H); stomach cancer N87 (FIGS. 1D-F); colon cancer HT-29 (FIG. 1G); breast cancer MX-1 and HCC-1806 (FIGS. 1J, K); ovarian cancer SK-OV-3 and OVACAR-3 (FIGS. 1 L, M) and prostate cancer PC3 (FIG. 1N). See also Table 5.

[4] = antagonist 5 μM for 72 h, cell proliferation assay, MIA602 = 1
[5] = Table 4D, Stomach Ca N87, 10 weeks, 2 μg/day s.c.
[6] = Table 4D, Stomach Ca N87, 10 weeks, 5 μg/day s.c.
[7] = Table 4E, Stomach Ca N87, 4 weeks, 5 μg/day s.c.
[8] = Table 4F, Stomach Ca N87, 4 weeks, 5 μg/day s.c.
[9] = Table 4E, Stomach Ca N87, 4 weeks, 2 μg/day s.c.

Row | SMILES | In vitro relative inhibitory potency in comparison to MIA-602, NCI-N87 [1] | relative inhibitory potency in comparison to MIA-602, Stomach N87 [1, 4] | In vitro relative inhibitory potency in comparison to MIA-602, HCC827 (HCC827 lung cancer cells) | relative inhibitory potency in comparison to MIA-602, Lung IICC827 (HCC827 lung cancer cells; [4]) | In vitro relative inhibitory potency in comparison to MIA-602, CFPAC-1 [2] | relative inhibitory potency in comparison to MIA-602, Pancreatic CFPAC-1 [2, 4] | In vitro relative inhibitory potency in comparison to MIA-602, HT-29 (HT-29 colon cancer cells) | Tumor Size (mm^3) [3, 5] | % Inhibition [3, 5] | Tumor Size (mm^3) [3, 6] | % Inhibition [3, 6] | Tumor Growth % [3, 7] | % Inhibition [3, 7] | Tumor Growth % [3, 8] | % Inhibition [3, 8] | Tumor Growth % [3, 9] | % Inhibition [3, 9]
1 | CCCC[C@H](NC(=O)[C@@H](NC(=O)[C@H](CC(=O)O)NC(=O)[C@H](CCC(N)=O)NC(=O)[C@H](CC(C)C)NC(=O)[C@H](CC(C)C)NC(=O)[C@H](CCCN)NC(=O)[C@H](Cc1c[nH]cn1)NC(=O)[C@H](C)NC(=O)[C@H](CO)NC(=O)[C@H](CC(C)C)NC(=O)[C@H](CCC(N)=O)NC(=O)[C@H](CC)NC(=O)[C@H](CC(C)C)NC(=O)[C@@H](NC(=O)[C@H](CCCN)NC(=O)[C@H](Cc1c[nH]cn1)NC(=O)[C@H](Cc1ccc(OC)cc1)NC(=O)[C@H](CCCCNC(=N)N)NC(=O)[C@H](C)NC(=O)[C@@H](NC(=O)[C@H](Cc1c(F)c(F)c(F)c(F)c1F)NC(=O)[C@@H](NC(=O)[C@H](C)NC(=O)[C@H](CC(=O)O)NC(=O)[C@@H](CCCNC(=N)N)NC(=O)[C@H](Cc1ccc(O)cc1)NC(=O)CCCCCCCCCCCNC(=O)Cc1ccccc1)[C@@H](C)CC)[C@@H](C)O)C(C)C)[C@@H](C)CC)C(=O)N[C@H](CCCNC(=N)N)C(=O)N[C@@H](CCCCNC(=N)N)C(N)=O [MIA-602, PhAC-Ada, Tyr D-Arg, Asp, Ala, Ile, 5FPhe, Thr, Ala, Har, Tyr(Me), His, Orn, Val, Leu, Abu, Gin, Leu, Ser, Ala, His, Om, Leu, Leu, Gin, Asp, Ile; Nle, D-Arg, Har NH2, reference compound] ({PhAc-12Ado}-Y[dR]DAI[Phe(F5)]TA[hArg]Y(Me)H[Orn]VL[Abu]QLSAH[Orn]LLQDI[Nle][dR][hArg]-NH2) | 1 | 1 | 1 | 1 | 1 | 1 | 1 | 1065.00 mm^3 | 13.0% | 767.00 mm^3 | 37.3% | 427.20% | 52.1% | 427.20% | 52.1% | – | –
2 | CCCC[C@H](NC(=O)[C@@H](NC(=O)[C@H](CC(=O)O)NC(=O)[C@H](CCC(N)=O)NC(=O)[C@H](CC(C)C)NC(=O)[C@H](CC(C)C)NC(=O)[C@H](CCCN)NC(=O)[C@H](Cc1c[nH]cn1)NC(=O)[C@H](C)NC(=O)[C@H](CO)NC(=O)[C@H](CC(C)C)NC(=O)[C@H](CCC(N)=O)NC(=O)[C@H](CC)NC(=O)[C@H](CC(C)C)NC(=O)[C@@H](NC(=O)[C@H](CCCN)NC(=O)[C@H](Cc1c[nH]cn1)NC(=O)[C@H](Cc1c(F)c(F)c(F)c(F)c1F)NC(=O)[C@H](CCCCNC(=N)N)NC(=O)[C@H](C)NC(=O)[C@@H](NC(=O)[C@H](Cc1ccc(Cl)cc1)NC(=O)[C@@H](NC(=O)[C@H](C)NC(=O)[C@H](CC(=O)O)NC(=O)[C@@H](CCCNC(=N)N)NC(=O)[C@H](Cc1ccc(O)cc1)NC(=O)CCCCCCCCCCCNC(=O)Cc1c(F)c(F)c(F)c(F)c1F)[C@@H](C)CC)[C@@H](C)O)C(C)C)[C@@H](C)CC)C(=O)N[C@H](CCCNC(=N)N)C(=O)N[C@@H](CCCCNC(=N)N)C(=O)NCCCCCCCCCCCC(=O)NC [AVR-543, 5FPhAC-Ada-Tyr-DArg-Asp-Ala-Ile-Cpa-Thr-Ala-Har-5FPhe-His-Orn-Val-Leu-Abu-Gln-Leu-Ser-Ala-His-Orn-Leu-Leu-Gln-Asp-Ile-Nle-DArg-Har-Ada-NHCH3] ({Phenylacetyl(2,3,4,5,6-F5)-12Ado}-Y[dR]DAI[Phe(4-Cl)]TA[hArg][Phe(F5)]H[Orn]VL[Abu]QLSAH[Orn]LLQDI[Nle][dR][hArg][12Ado]-NHMe) | 0.908 | – | 0.961 | – | 2.05 | – | 0.999 | – | – | – | – | 313.90% | 64.8% | – | – | 406.8% | 48.4%
